Data: patent US8541415B2 (University of Pittsburgh—of the Commonwealth System of …, priority 2008, dated 2013)
Like-named read-outs stand apart in the source and are kept apart here.

What was measured:
Nef:Hck-YEEI complex [1] = target: T1, Nef:Hck-YEEI complex (Homo sapiens, UniProt P08631)
Target sequence in this assay (P03407 2-210): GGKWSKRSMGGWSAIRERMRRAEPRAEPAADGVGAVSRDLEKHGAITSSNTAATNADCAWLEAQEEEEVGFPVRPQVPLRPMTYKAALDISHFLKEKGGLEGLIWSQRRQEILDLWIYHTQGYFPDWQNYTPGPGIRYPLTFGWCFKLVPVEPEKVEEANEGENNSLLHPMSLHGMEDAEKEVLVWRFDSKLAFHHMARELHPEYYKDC
Target sequence in this assay (P08631 other isoform, or with tags, fused parts or gaps): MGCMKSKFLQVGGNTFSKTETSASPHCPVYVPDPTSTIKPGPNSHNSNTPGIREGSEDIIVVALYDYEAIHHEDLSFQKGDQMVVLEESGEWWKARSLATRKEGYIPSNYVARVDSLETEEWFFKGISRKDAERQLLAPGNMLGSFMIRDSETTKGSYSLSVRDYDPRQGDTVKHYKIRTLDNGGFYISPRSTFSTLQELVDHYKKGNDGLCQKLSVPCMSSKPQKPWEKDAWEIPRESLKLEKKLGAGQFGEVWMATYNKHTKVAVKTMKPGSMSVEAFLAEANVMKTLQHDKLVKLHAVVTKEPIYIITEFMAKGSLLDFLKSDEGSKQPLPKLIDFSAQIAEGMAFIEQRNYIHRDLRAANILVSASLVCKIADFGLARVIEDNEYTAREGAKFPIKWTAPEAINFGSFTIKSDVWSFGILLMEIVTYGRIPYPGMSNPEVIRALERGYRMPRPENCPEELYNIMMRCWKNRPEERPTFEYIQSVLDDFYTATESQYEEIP
Procedure: For the liquid growth assay, yeast strain W303a was co-transformed with the required plasmids, seeded at an initial density of OD600nm=0.05 units in SD/-U-T medium, and incubated for 21 h at 30° C.
Aliquots of yeast cultures used for the spot assay were grown in SD/-U-T medium plus galactose for 18 h. […] Aliquots of each lysate (0.2 OD600nm units) were separated via SDS-PAGE, transferred to PVDF membranes, and probed for protein phosphotyrosine content with a combination of the anti-phosphotyrosine antibodies PY99 (Santa Cruz Biotechnology, Santa Cruz, Calif.) and PY20 (Transduction Laboratories, Lexington, Ky.).
Yeast strain W303a was co-transformed with Hck-YEEI (SE0 ID NO: 4) and Nef expression plasmids and grown to an OD600nm of 0.05. Cells (100 μL) were plated in duplicate wells of a 96-well plate in the presence of each compound from the Chempiv kinase-biased inhibitor library (Chempiv, Inc., San Diego, Calif.). All compounds were initially screened at 10 μM with 0.5% DMSO as carrier solvent. […] Cultures were incubated at 30° C., and the OD60nm was measured at 0 and 22 h.

U87MG cells = details: human
Procedure: (§1) Lead compounds from the yeast screen were evaluated for activity in a Nef-dependent HIV replication assay. For these experiments, U87MG astroglioma cells engineered to express the HIV-1 co-receptors CD4 and CXCR4 were employed. Replication of HIV-1 NL4-3 is dependent upon an intact viral nef gene in these cells, making this system suitable to evaluate leads from the Nef-directed screen. U87MG cells were infected with HIV-1 in the presence of the top five compounds identified in the yeast screen, and HIV replication was monitored as p24 release into the culture supernatant 4 days later, as known in the art. As known in the art, “p24” refers to a constituent protein of the capsid of HIV-1.
(§2) The data of Table 1 are presented as percent p24 release relative to control in the absence of compound. […] Data are expressed as percent viable cells relative to untreated control culture.

HIV-1 strain NL4-3 = test: microbe, parasite or virus in culture; assay type: cell-based; details: for IC50 / activity at 5 µM: Human immunodeficiency virus 1, NL43, U-87 MG; for Suppression of HIV replication: p24 release 4 days later, leads from yeast screen; for activity at 5 µM: 96 h, read-out: HIV p24% Control @ day 4; for Anti-HIV activity (words, structure-activity comment on Table 1): 5 μM, p24 day 4; for Inhibition of pseudotyped NL43 HIV-1 replication: FIGS. 1-3
Procedure: as §1, §2
It is understood that “strongest” and like terms in the context of inhibitors identified in a library screen refer to compounds that inhibit at the lowest concentrations. For these experiments, the U87MG astroglioma cell line was used as a model system. […] U87MG cells were infected with HIV-1 strain NL4-3 as well as an isogenic variant that fails to express Nef (ΔNef), over a wide range of viral titers and in the presence of each compound at 5 μM. Viral replication was assessed as HIV p24 antigen release into the culture supernatant 4 and/or 5 days later. Methods for the assay of p24 in culture supernatant are well known in the art and include, for example without limitation, immunochemical methods.

Nef:Hck-YEEI complex [2] = details: Z'-Lyte dose-response, FIG. 7A
[3] = tested on: HIV-ΔNef mutant (NL4-3 that fails to express Nef); test: Replication of Nef-defective HIV in U87MG cells (p24 ELISA); details: p24 ELISA day 5, FIG. 8, for Ma even at 10 μM
Procedure: HIV p24 release was determined by ELISA at day 5 following the addition of the DFP-analogs. […] U87MG cells were infected a viral density of 500 pg/ml. p24 as determined by ELISA.
To address whether Nef is required for the anti-retroviral effects of these compounds, HIV replication assays in U87MG cells infected with either wild-type or Nef-defective HIV were carried out.
Viral replication was monitored by measuring p24 protein levels in the culture supernatant 4 days after infection by standard ELISA-based techniques. Test compounds were added to the culture 30 min prior to infection with HIV, and DMSO was used as the carrier solvent at a final concentration of 0.1%.
Nef:Hck-YEEI complex [4] = target: T1, Nef:Hck-YEEI complex; test: biochemical
Target sequence in this assay (P08631 with tags, fused parts or gaps isoform P08631-3, other chains not shown): as the sequence (P08631 other isoform, or with tags, fused parts or gaps) above
Nef:Hck-YEEI complex [5] = target: T1, Nef:Hck-YEEI complex; details: Z'-Lyte dose-response, FIG. 7
Target sequence in this assay (P08631 with tags, fused parts or gaps isoform P08631-3, other chains not shown): as the sequence (P08631 other isoform, or with tags, fused parts or gaps) above

Row | SMILES | Cytotoxicity, Viable cell % control (U87MG cells; 96 h, 30 μM) [% control] | activity at 5 µM (HIV-1 strain NL4-3) [%] | further results
1 | CN1CCN(C2CCC(n3cc(-c4ccc(Oc5ccccc5)cc4)c4c(N)ncnc43)CC2)CC1 (stereo not drawn) [Compound A-419259] | – | – | Tyrosine phosphorylation of yeast proteins (Nef:Hck-YEEI complex [1]; inhibitor-treated yeast cultures, anti-phosphotyrosine immunoblot): decrease in tyrosine phosphorylation of yeast proteins to control levels; Reversal of growth arrest compared with Nef PxxP mutation (Nef:Hck-YEEI complex [1]; liquid yeast cultures, 5 μM): nearly as effective as mutation of the Nef PxxP motif; Reversal of growth suppression induced by Nef:Hck-YEEI (Nef:Hck-YEEI complex [1]; liquid yeast cultures, OD 600 nm, at both 1 μM and 5 μM vs untreated cultures): significantly reversed the growth suppression
2 | O=S(=O)(Nc1nc2ccccc2nc1Nc1ccc2c(c1)OCCO2)c1ccc(Cl)cc1 [Compound Ia, 4-Chloro-N-[3-(2,3-dihydro-benzo[1,4]dioxin-6-ylamino)-quinoxalin-2-yl]-benzenesulfonamide] | – | – | Concentration up to which not cytotoxic (U87MG cells): > 50 µM; IC50 (HIV-1 strain NL4-3; read-out: IC50, HIV replication, U87MG cells expressing CD4 and CXCR4, HIV-1 NL4-3, concentration-response): ~0.13 µM; Suppression of HIV replication (HIV-1 strain NL4-3; U87MG cells): significantly suppressed HIV replication; melting point: 257 to 258 °C
3 | O=S(=O)(Nc1nc2ccccc2nc1Nc1ccc2ccccc2c1)c1ccccc1 [Compound Q1] | 98 | 4 | –
4 | COc1ccc(OC)c(Nc2nc3ccccc3nc2NS(=O)(=O)c2ccc(Cl)cc2)c1 [Compound Q2] | 100 | 10 | –
5 | COc1ccc(Nc2nc3ccccc3nc2NS(=O)(=O)c2ccc(Cl)cc2)cc1OC [Compound Q3] | 100 | 13 | Anti-HIV activity (words, structure-activity comment on Table 1) (HIV-1 strain NL4-3; U87MG cells): one of the most active compounds
6 | O=S(=O)(Nc1nc2ccccc2nc1Nc1cccc2ccccc12)c1ccccc1 [Compound Q4] | 100 | 26 | –
7 | COc1ccc(Nc2nc3ccccc3nc2NS(=O)(=O)c2ccc(Cl)cc2)c(OC)c1 [Compound Q5] | 96 | 26 | –
8 | Nc1ccc(S(=O)(=O)Nc2nc3ccccc3nc2Nc2ccc3ccccc3c2)cc1 [Compound Q6] | 92 | 40 | –
9 | O=S(=O)(Nc1nc2ccccc2nc1Nc1ccccc1)c1ccccc1 [Compound Q7] | 97 | 42 | –
10 | COc1ccc(Nc2nc3ccccc3nc2NS(=O)(=O)c2ccc(C)cc2)c(OC)c1 [Compound Q8] | 90 | 55 | –
11 | CCOc1ccccc1Nc1nc2ccccc2nc1NS(=O)(=O)c1ccc(C)cc1 [Compound Q9] | 100 | 60 | –
12 | COc1ccc2nc(NS(=O)(=O)c3ccccc3)c(Nc3cc(OC)c(OC)c(OC)c3)nc2c1 [Compound Q10] | 95 | 62 | –
13 | O=S(=O)(Nc1nc2ccccc2nc1Nc1ccc(O)cc1)c1ccccc1 [Compound Q11] | 88 | 68 | –
14 | COc1ccc(Nc2nc3ccccc3nc2NS(=O)(=O)c2ccc(C)cc2)cc1OC [Compound Q13] | 91 | 82 | –
15 | COc1ccccc1Nc1nc2ccccc2nc1NS(=O)(=O)c1ccccc1 [Compound Q14] | 93 | 87 | –
16 | Cc1ccc(S(=O)(=O)Nc2nc3ccccc3nc2Nc2ccc3c(c2)OCCO3)cc1 [Compound Q15] | 96 | 88 | –
17 | CCOc1ccc(S(=O)(=O)Nc2nc3ccccc3nc2Nc2ccccc2)cc1 [Compound Q16] | 100 | 91 | –
18 | COc1ccc(Nc2nc3ccccc3nc2NS(=O)(=O)c2ccccc2)cc1OC [Compound Q17] | 97 | 100 | Anti-HIV activity (words, structure-activity comment on Table 1) (HIV-1 strain NL4-3; U87MG cells): one of the least active

Row | SMILES | Cytotoxicity, Viable cell % control (U87MG cells; 96 h, 30 μM) [% control] | activity at 5 µM (HIV-1 strain NL4-3) [%] | further results
19 | CCOc1ccc(S(=O)(=O)Nc2nc3ccccc3nc2Nc2ccc(OC)cc2)cc1 [Compound Q18] | 99 | 112 | –
20 | O=S(=O)(Nc1nc2ccccc2nc1Nc1cccc(O)c1)c1ccccc1 [Compound Q19] | 92 | 114 | –
21 | COc1ccc(Nc2nc3ccccc3nc2NS(=O)(=O)c2ccccc2)cc1 [Compound Q20] | 89 | 119 | –
22 | O=S(=O)(Nc1nc2ccccc2nc1Nc1ccc2ccccc2c1)c1ccc(Cl)cc1 [Compound Q21, 4-Chloro-N-[3-(naphthalen-2-ylamino)-quinoxalin-2-yl]-benzenesulfonamide] | – | – | Inhibition of pseudotyped NL43 HIV-1 replication (HIV-1 strain NL4-3; U87MG cells): potent inhibitors of viral infection; melting point: 222 to 224 °C
23 | O=S(=O)(Nc1nc2ccccc2nc1Nc1cccc2ccccc12)c1ccc(Cl)cc1 [Compound Q22, 4-Chloro-N-[3-(naphthalen-1-ylamino)-quinoxalin-2-yl]-benzenesulfonamide] | – | – | Selectivity wild-type vs Nef-deficient NL43 HIV-1 (HIV-1 strain NL4-3; U87MG cells infected with wild-type or Nef-deficient virus, FIG. 3): selective and more potent at inhibiting the replication of wild-type virus; Inhibition of pseudotyped NL43 HIV-1 replication (HIV-1 strain NL4-3; U87MG cells): potent inhibitors of viral infection; melting point: 262 to 265 °C
24 | OCCNc1ncnc2oc(-c3ccccc3)c(-c3ccccc3)c12 [IIIL] | 94 | 93 | –
25 | OCCCNc1ncnc2oc(-c3ccccc3)c(-c3ccccc3)c12 [IIIa, 3-(5,6-diphenylfuro[2,3-d]pyrimidin-4-ylamino)propan-1-ol] | 95 | 20 | Increase in potency in the presence of Nef (Nef:Hck complex vs Hck alone) (Nef:Hck-YEEI complex [2]): 2 fold; Cytotoxicity against U87MG cells (U87MG cells; 96 h, 30 μM): neither DFP-4AP nor any of the other diphenylfuropyrimidine analogs displayed significant cytotoxicity; Effect on replication of HIV-ΔNef mutant [3]: no effect; IC50 (HIV-1 strain NL4-3; 120 h, read-out: IC50, HIV-1 replication (viral p24 release), U87MG cells, HIV strain NL4-3, p24 ELISA 5 days later, FIG. 5C): 6 µM; HIV replication, p24 release (HIV-1 strain NL4-3; U87MG cells, HIV-1 NL4-3, compound at 5 μM, 4 and/or 5 days, FIG. 6): undetectable levels; IC50, wild-type HIV replication (HIV-1 strain NL4-3; U87MG cells, wild-type NL4-3, p24 ELISA day 5, FIG. 8): low μM range; IC50 (Nef:Hck-YEEI complex [4]; IC50, Nef-induced Hck activation (Nef:Hck complex kinase activity), in vitro, peptide substrate, triplicate, FIG. 5B legend): 4 µM; IC50 (Nef:Hck-YEEI complex [4]; IC50, kinase activity of Nef:Hck-YEEI complex, dose response study, FIG. 5B, text b88): ~3 µM
26 | c1ccc(-c2oc3ncnc(NCc4ccco4)c3c2-c2ccccc2)cc1 [IIIb] | 109 | 8 | –
27 | Nc1ncnc2oc(-c3ccco3)c(-c3ccco3)c12 [IIIc] | – | 20 | –
28 | Cc1ccc(-c2oc3ncnc(N)c3c2-c2ccc(C)cc2)cc1 [IIId] | 90 | 29 | –
29 | c1ccc(-c2oc3ncnc(NCCN4CCOCC4)c3c2-c2ccccc2)cc1 [IIIe] | 89 | 39 | –
30 | c1ccc(-c2oc3ncnc(NCCCN4CCOCC4)c3c2-c2ccccc2)cc1 [IIIf] | 99 | 47 | –
31 | O=C(O)CNc1ncnc2oc(-c3ccccc3)c(-c3ccccc3)c12 [IIIg] | 100 | 58 | –
32 | O=C(Nc1ncnc2oc(-c3ccccc3)c(-c3ccccc3)c12)c1ccco1 [IIIh] | 89 | 59 | –
33 | COc1ccc(-c2oc3ncnc(N)c3c2-c2ccccc2)cc1 [IIIj] | 97 | 73 | –
34 | c1ccc(-c2oc3ncnc(NCCCc4ccco4)c3c2-c2ccccc2)cc1 [IIIq, N-(3-(furan-2-yl)propyl) 5,6-diphenylfuro[2,3-d]pyrimidin-4-amine] | – | – | Inhibition of Nef:Hck complex (Nef:Hck-YEEI complex [5]): enhanced both potency and efficacy for the Nef:Hck complex vs. Hck alone; Effect on replication of HIV-ΔNef mutant [3]: Neither IIIm nor IIIq shows inhibition; IC50 (HIV-1 strain NL4-3; 120 h, read-out: IC50, wild-type HIV replication, U87MG cells, wild-type NL4-3, p24 ELISA day 5, FIG. 8): ≤ 1 µM
35 | Cc1nc2sc(-c3nc4ccccc4[nH]3)c(N)c2c(C)c1Cl [IIa] | – | – | Concentration up to which not cytotoxic (U87MG cells): > 50 µM; Suppression of HIV replication (HIV-1 strain NL4-3; U87MG cells): significantly suppressed HIV replication
